Where two headings read alike, the source gives them in different places.
What was measured:
A. baumannii ATCC 19606 = assay: Antibacterial MIC, double-dilution method; type: cell-based; conditions: Acinetobacter baumannii, ATCC19606, strain E, Gram-negative, read-out: MIC
Outline: (§1)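 Compounds were first screened at 500 μM each, then MICs were read by serial twofold dilution of the compound against the bacterial strain.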

B. subtilis 168 = assay: Antibacterial MIC, double-dilution method; type: cell-based; conditions: Bacillus subtilis, strain A, Gram-positive
Outline: as §1

E. cloacae ATCC 13047 = assay: Antibacterial MIC, double-dilution method; type: cell-based; conditions: Enterobacter cloacae, ATCC13047, strain F, Gram-negative, read-out: MIC
Outline: as §1

E. coli MC1061 = assay: Antibacterial MIC, double-dilution method; type: cell-based; conditions: Escherichia coli, strain G, Gram-negative, read-out: MIC
Outline: as §1

K. pneumoniae ATCC 27736 = assay: Antibacterial MIC, double-dilution method; type: cell-based; conditions: Klebsiella pneumoniae, ATCC27736, strain H, Gram-negative, read-out: MIC
Outline: as §1

[1] = tested on: L. monocytogenes ATCC 19115; assay: Antibacterial MIC, double-dilution method; type: cell-based; conditions: Listeria monocytogenes, ATCC19115, strain B, Gram-positive, read-out: MIC
Outline: as §1

M. smegmatis MC2-155 = assay: Antibacterial MIC, double-dilution method; type: cell-based; conditions: Mycolicibacterium smegmatis, MC2155, strain K, mycobacterial, read-out: MIC
Outline: as §1

MRSA = assay: Antibacterial MIC, double-dilution method; type: cell-based; conditions: Staphylococcus aureus, strain C, Gram-positive, read-out: MIC
Outline: as §1

P. aeruginosa ATCC 27853 = assay: Antibacterial MIC, double-dilution method; type: cell-based; conditions: Pseudomonas aeruginosa, ATCC27853, strain I, Gram-negative, read-out: MIC
Outline: as §1

S. enterica ATCC 14028 = assay: Antibacterial MIC, double-dilution method; type: cell-based; conditions: Salmonella enterica, ATCC14028, strain J, Gram-negative, read-out: MIC
Outline: as §1

VRE = assay: Antibacterial MIC, double-dilution method; type: cell-based; conditions: Enterococcus, strain D, Gram-positive, read-out: MIC
Outline: as §1

C. albicans ATCC 1003 = assay: Antifungal MIC, CLSI M27-A3 microbroth dilution; type: cell-based, Candida albicans; conditions: Candida albicans, ATCC1003, read-out: MIC
Description: (§2) In vitro MIC testing was performed according to the CLSI M27-A3 standard microbroth dilution methodology for the susceptibility testing of yeasts with minor modifications.

C. albicans ATCC 10231 = assay: Antifungal MIC, CLSI M27-A3 microbroth dilution; type: cell-based, Candida albicans; conditions: Candida albicans, ATCC10231, C. albicans ATCC 10231, resistant to FLC, ITC, and VOR, read-out: MIC
Description: as §2

C. albicans ATCC 1237 = assay: Antifungal MIC, CLSI M27-A3 microbroth dilution; type: cell-based, Candida albicans; conditions: Candida albicans, ATCC1237, C. albicans ATCC 1237, resistant to FLC, ITC, and VOR, read-out: MIC
Description: as §2

C. albicans ATCC 2310 = assay: Antifungal MIC, CLSI M27-A3 microbroth dilution; type: cell-based, Candida albicans; conditions: Candida albicans, ATCC2310, C. albicans ATCC 2310, susceptible to FLC, ITC, and VOR, read-out: MIC
Description: as §2

C. albicans ATCC 2876 = assay: Antifungal MIC, CLSI M27-A3 microbroth dilution; type: cell-based, Candida albicans; conditions: Candida albicans, ATCC2876, C. albicans ATCC 2876, susceptible to FLC, ITC, and VOR, read-out: MIC
Description: as §2

C. albicans ATCC 64124 = assay: Antifungal MIC, CLSI M27-A3 microbroth dilution; type: cell-based, Candida albicans; conditions: Candida albicans, ATCC64124, C. albicans ATCC 64124, resistant to FLC, ITC, and VOR, read-out: MIC
Description: as §2

C. albicans ATCC 90819 = assay: Antifungal MIC, CLSI M27-A3 microbroth dilution; type: cell-based, Candida albicans; conditions: Candida albicans, ATCC90819, C. albicans ATCC 90819, resistant to FLC, ITC, and VOR, read-out: MIC
Description: as §2

[2] = tested on: C. albicans strains (panel of seven); assay: Antifungal MIC, summary over the panel; type: cell-based, Candida albicans; conditions: for antifungal activity in words: against all fungal strains tested
Outline: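 Compounds were serially diluted in broth following the CLSI M27-A3 yeast protocol, modified in minor ways. Wells were then inspected visually. The lowest concentration showing no growth relative to control defined the MIC.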

[3] = C. albicans ATCC 1003, converted from μg/mL

Row | Compound | MIC (A. baumannii ATCC 19606; converted from μM) [µg/mL] | MIC (A. baumannii ATCC 19606; range 0.5 to 500 μM) [µM] | MIC (B. subtilis 168; converted from μM) [µg/mL] | MIC (B. subtilis 168; range 0.5 to 500 μM) [µM] | MIC (E. cloacae ATCC 13047; converted from μM) [µg/mL] | MIC (E. cloacae ATCC 13047; range 0.5 to 500 μM) [µM] | MIC (E. coli MC1061; converted from μM) [µg/mL] | MIC (E. coli MC1061; range 0.5 to 500 μM) [µM] | MIC (K. pneumoniae ATCC 27736; converted from μM) [µg/mL] | MIC (K. pneumoniae ATCC 27736; range 0.5 to 500 μM) [µM] | MIC ([1]; converted from μM) [µg/mL] | MIC ([1]; range 0.5 to 500 μM) [µM] | MIC (M. smegmatis MC2-155; converted from μM) [µg/mL] | MIC (M. smegmatis MC2-155; range 0.5 to 500 μM) [µM] | MIC (MRSA; converted from μM) [µg/mL] | MIC (P. aeruginosa ATCC 27853; converted from μM) [µg/mL] | MIC (P. aeruginosa ATCC 27853; range 0.5 to 500 μM) [µM] | MIC (S. enterica ATCC 14028; converted from μM) [µg/mL] | MIC (S. enterica ATCC 14028; range 0.5 to 500 μM) [µM] | MIC (VRE; converted from μM) [µg/mL] | further results
1 | Cl.N=C(N)N/N=C/c1ccc(-c2ccc(/C=N/Nc3ccc(F)cc3F)cc2)cc1 [Compound 7Af, (E)-2-((4′-((E)-(2-(2,4-Difluorophenyl)hydrazono)methyl)-[1,1′-biphenyl]-4-yl)methylene) hydrazine-1-carboximidamide, monohydrochloride] | > 214 | > 500 | > 214 | > 500 | > 214 | > 500 | > 214 | > 500 | > 214 | > 500 | 0.9 to 1.7 | 2 to 3.9 | 0.9 to 1.7 | 2 to 3.9 | 1.7 | > 214 | > 500 | > 214 | > 500 | 1.7 | MIC (MRSA; range 0.5 to 500 μM): 3.9 µM; MIC (VRE; range 0.5 to 500 μM): 3.9 µM; MIC (C. albicans ATCC 1003; [3]): 4.5 µM; MIC (C. albicans ATCC 1003): 2 µg/mL; MIC (C. albicans ATCC 10231; converted from μg/mL): 2.3 µM; MIC (C. albicans ATCC 10231): 1 µg/mL; MIC (C. albicans ATCC 1237; converted from μg/mL): 9.1 µM; MIC (C. albicans ATCC 1237): 3.9 µg/mL; MIC (C. albicans ATCC 2310; converted from μg/mL): 9.1 µM; MIC (C. albicans ATCC 2310): 3.9 µg/mL; MIC (C. albicans ATCC 2876; converted from μg/mL): 9.1 µM; MIC (C. albicans ATCC 2876): 3.9 µg/mL; MIC (C. albicans ATCC 64124; converted from μg/mL): 9.1 µM; MIC (C. albicans ATCC 64124): 3.9 µg/mL; MIC (C. albicans ATCC 90819; converted from μg/mL): 18.2 µM; MIC (C. albicans ATCC 90819): 7.8 µg/mL; antifungal activity in words [2]: excellent antifungal activities
2 | Cl.N=C(N)N/N=C/c1ccc(-c2ccc(/C=N/Nc3ccc(Cl)cc3)cc2)cc1 [Compound 7Ad, (E)-2-((4′-((E)-(2-(4-Chlorophenyl)hydrazono)methyl)-[1,1′-biphenyl]-4-yl)methylene)hydrazine-1-carboximidamide monohydrochloride] | > 214 | > 500 | > 214 | > 500 | > 214 | > 500 | > 214 | > 500 | > 214 | > 500 | 1.7 | 3.9 | 1.7 | 3.9 | 3.3 | > 214 | > 500 | > 214 | > 500 | 1.7 | MIC (MRSA; range 0.5 to 500 μM): 7.8 µM; MIC (VRE; range 0.5 to 500 μM): 3.9 µM; MIC (C. albicans ATCC 1003; [3]): 9.1 µM; MIC (C. albicans ATCC 1003): 3.9 µg/mL; MIC (C. albicans ATCC 10231; converted from μg/mL): 18.3 µM; MIC (C. albicans ATCC 10231): 7.8 µg/mL; MIC (C. albicans ATCC 1237; converted from μg/mL): 36.5 µM; MIC (C. albicans ATCC 1237): 15.6 µg/mL; MIC (C. albicans ATCC 2310; converted from μg/mL): 9.1 µM; MIC (C. albicans ATCC 2310): 3.9 µg/mL; MIC (C. albicans ATCC 2876; converted from μg/mL): 18.3 µM; MIC (C. albicans ATCC 2876): 7.8 µg/mL; MIC (C. albicans ATCC 64124; converted from μg/mL): 36.5 µM; MIC (C. albicans ATCC 64124): 15.6 µg/mL; MIC (C. albicans ATCC 90819; converted from μg/mL): 18.3 µM; MIC (C. albicans ATCC 90819): 7.8 µg/mL; MIC ([2]; Candida albicans, all, most or majority of the fungal strains, read-out: MIC, span over C. albicans strains): 7.8 to 15.6 µg/mL
3 | Cl.Cl.N=C(N)N/N=C/c1ccc(-c2cccc(/C=N/NC(=N)N)c2)cc1 [Compound 3B, (2E,2′E)-2,2′-([1,1′-Biphenyl]-3,4′-diylbis(methanylylidene))bis(hydrazine-1-carboximidamide) dihydrochloride] | > 198 | > 500 | > 198 | > 500 | > 198 | > 500 | > 198 | > 500 | > 198 | > 500 | 0.4 | 1 | 0.4 | 1 | 1.5 | > 198 | > 500 | > 198 | > 500 | 1.5 | MIC (MRSA; range 0.5 to 500 μM): 3.9 µM; MIC (VRE; range 0.5 to 500 μM): 3.9 µM; MIC (C. albicans ATCC 1003; [3]): 9.9 µM; MIC (C. albicans ATCC 1003): 3.9 µg/mL; MIC (C. albicans ATCC 10231; converted from μg/mL): 9.9 µM; MIC (C. albicans ATCC 10231): 3.9 µg/mL; MIC (C. albicans ATCC 1237; converted from μg/mL): 9.9 µM; MIC (C. albicans ATCC 1237): 3.9 µg/mL; MIC (C. albicans ATCC 2310; converted from μg/mL): 9.9 µM; MIC (C. albicans ATCC 2310): 3.9 µg/mL; MIC (C. albicans ATCC 2876; converted from μg/mL): 9.9 µM; MIC (C. albicans ATCC 2876): 3.9 µg/mL; MIC (C. albicans ATCC 64124; converted from μg/mL): 9.9 µM; MIC (C. albicans ATCC 64124): 3.9 µg/mL; MIC (C. albicans ATCC 90819; converted from μg/mL): 9.9 µM; MIC (C. albicans ATCC 90819): 3.9 µg/mL; antifungal activity in words [2]: excellent antifungal activities
4 | Cl.N=C(N)N/N=C/c1ccc(-c2ccc(C=NNc3ccccc3Cl)cc2)cc1 (mixture of isomers) [Compound 7Aa, E)-2-((4′-((E and Z)-(2-(2-Chlorophenyl)hydrazono)methyl)-[1,1′-biphenyl]-4-yl)methylene)hydrazine-1-carboximidamide monohydrochloride] | > 215 | > 500 | > 215 | > 500 | > 215 | > 500 | > 215 | > 500 | > 215 | > 500 | 0.4 to 0.9 | 1 to 2 | 1.7 | 3.9 | 0.9 | > 215 | > 500 | > 215 | > 500 | 0.9 | MIC (C. albicans ATCC 1003; [3]): 4.6 µM; MIC (C. albicans ATCC 10231; converted from μg/mL): 4.6 µM; MIC (C. albicans ATCC 1237; converted from μg/mL): 9.2 µM; MIC (C. albicans ATCC 1237): 3.9 µg/mL; MIC (C. albicans ATCC 2310; converted from μg/mL): 4.6 µM; MIC (C. albicans ATCC 2876; converted from μg/mL): 4.6 µM; MIC (C. albicans ATCC 64124; converted from μg/mL): 9.2 µM; MIC (C. albicans ATCC 64124): 3.9 µg/mL; MIC (C. albicans ATCC 90819; converted from μg/mL): 4.6 µM; antifungal activity in words [2]: excellent antifungal activities

Reference: US10173968B2, “Bishydrazone-based antifungal agents” (University of Kentucky Research Foundation, priority 2016, dated 2019)
